Test results from patent publication US20080090892A1, “AMORPHOUS ASENAPINE AND PROCESSES FOR PREPARING SAME” (N.V. Organon, priority 2006, published 2008).
Structures can show the parent of a compound that is named as a salt.

Experiment: Relative humidity (RH) study, visual assessment in double-vial relative humidity chambers
Format: physicochemical
Settings: approximately 36 hours
Protocol: Relative Humidity (RH): An RH study was conducted to determine appropriate handling conditions for amorphous asenapine maleate. Samples of Batch A1 were placed in double-vial relative humidity chambers at 3.4% RH, 8.2% RH and 22.5% RH and were visually assessed after approximately 36 hours.

## CN1C[C@@H]2c3ccccc3Oc3ccc(Cl)cc3[C@H]2C1 (relative stereo) [Batch A1, trans-5-chloro-2-methyl-2,3,3a,12b-tetrahydro-1H-dibenz[2,3:6,7]oxepino[4,5-c]pyrrole maleate]
3.4% RH
  physical state after storage at controlled relative humidity (visual assessment): remained solid
8.2% RH
  physical state after storage at controlled relative humidity (visual assessment): remained solid
22.5% RH
  physical state after storage at controlled relative humidity (visual assessment): deliquesced
